Experimental data as given in patent US20250276989A1, “GPR40 AGONISTS” (Kallyope, Inc., priority 2020, published 2025).

target: T1, human GPR40 (Homo sapiens, UniProt O14842); experiment: Inositol phosphate accumulation assay (IP1 HTRF) in CHO-K1 cells expressing human GPR40; type: cell-based; conditions: 90 min stimulation
T1 construct: host or cells: CHO-K1
Method: CHO-K1 cells expressing human GPR40 were purchased from DiscoverX (95-1005C2). HEK293 cells expressing mouse FFAR1 were prepared using a mouse FFAR1 carrying plasmid purchased from OriGene Technologies (MR222997). The cells were transfected using Lipofectamine 2000 using manufacturer instructions and stable cell line was established from a single cell using geneticine selection. Assay ready frozen (ARF) cells were prepared and used throughout the study.
The assay was performed in a 384-well plate format using IP1 assay kit from Cis-Bio. ARF cells expressing FFAR1 (mouse and human) were thawed, washed and then plated in the appropriate medium (F12 based medium for CHO hFFAR1 and DMEM based medium for HEK293 mFFAR1—both were supplemented with 10% FBS and penicillin/streptomycin). 20 μL of 3.5×10^5 cells/mL were plated on a Poly D-Lysine coated 384-well white plate. The cells were then incubated for 16 hr at 37° C./5% CO2. After 16 hr the medium was removed and 15 μL of stimulation buffer containing the test compounds was added to the cells. The plates were then incubated for 90 min at 37° C./5% CO2. 5 μL of detection buffer (prepared as described in the IP-one kit) was added to each well and the plates were incubated at RT for 1 hr.
[…] was measured using ClarioSTAR plate reader, calculating the ratio between emissions at 665 nm and 620 nm (HTRF ratio). HTRF ratio for positive (Max) and negative (Min) controls were used to normalize HTRF data and generate values for % activity. EC50 and Max activity values were determined using a standard 4-parameter fit.

T1 sequence (O14842 whole entry): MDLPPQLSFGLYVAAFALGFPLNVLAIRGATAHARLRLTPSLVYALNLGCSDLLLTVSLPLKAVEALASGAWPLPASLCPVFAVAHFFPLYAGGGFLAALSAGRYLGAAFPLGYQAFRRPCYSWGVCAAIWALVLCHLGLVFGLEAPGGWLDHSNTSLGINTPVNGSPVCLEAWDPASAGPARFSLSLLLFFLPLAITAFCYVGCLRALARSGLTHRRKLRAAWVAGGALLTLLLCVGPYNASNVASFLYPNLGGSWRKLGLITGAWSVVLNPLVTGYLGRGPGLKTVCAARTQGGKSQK

SMILES | EC50
COc1ccc(CCCC(C)(C)C)c(N2CCC(COc3cc([C@H](C)CP(C)(=O)O)ccn3)CC2)c1 [Compound 13, ((S)-2-(2-((1-(2-(4,4-dimethylpentyl)-5-methoxyphenyl)piperidin-4-yl)methoxy)pyridin-4-yl)propyl)(methyl)phosphinic acid] | 250 to 1000 nM
COc1ccc(CCCC(C)(C)C)c(N2CCC(COc3cc([C@@H](C)CP(C)(=O)O)ccn3)CC2)c1 [Compound 12, ((R)-2-(2-((1-(2-(4,4-dimethylpentyl)-5-methoxyphenyl)piperidin-4-yl)methoxy)pyridin-4-yl)propyl)(methyl)phosphinic acid] | ≤ 50 nM
COc1ccc(CCCC(C)(C)C)c(N2CCC(COc3cccc([C@@H](CP(C)(=O)O)C4CC4)c3)CC2)c1 [Compound 10, ((S)-2-cyclopropyl-2-(3-((1-(2-(4,4-dimethylpentyl)-5-methoxyphenyl)piperidin-4-yl)methoxy)phenyl)ethyl)(methyl)phosphinic acid] | ≤ 50 nM
COc1ccc(F)c([C@H]2CC[C@H](COc3cccc(C(CP(C)(=O)O)C4CC4)c3)CC2)c1 (single isomer, unassigned) [Compound 7, (2-cyclopropyl-2-(3-(((trans)-4-(2-fluoro-5-methoxyphenyl)cyclohexyl)methoxy)phenyl)ethyl)(methyl)phosphinic acid] | ≤ 50 nM
CC[C@@H](Cc1cccc(OCC2CCN(c3cc(OC)ccc3CCCC(C)(C)C)CC2)c1)P(C)(=O)O [Compound 18, ((S)-1-(3-((1-(2-(4,4-dimethylpentyl)-5-methoxyphenyl)piperidin-4-yl)methoxy)phenyl)butan-2-yl)(methyl)phosphinic acid] | 250 to 1000 nM
COc1ccc(CCCC(C)(C)C)c(N2CCC(COc3cccc([C@@H](C)CP(=O)(O)O)c3)CC2)c1 [Compound 20, (R)-(2-(3-((1-(2-(4,4-dimethylpentyl)-5-methoxyphenyl)piperidin-4-yl)methoxy)phenyl)propyl)phosphonic acid] | > 1000 nM
COc1ccc(CCCC(C)(C)C)c(N2CCC(COc3cccc([C@H](C)CP(=O)(O)O)c3)CC2)c1 [Compound 19, (S)-(2-(3-((1-(2-(4,4-dimethylpentyl)-5-methoxyphenyl)piperidin-4-yl)methoxy)phenyl)propyl)phosphonic acid] | 250 to 1000 nM
COc1ccc(F)c([C@H]2CC[C@H](COc3cccc(C(C4CC4)C(C)P(=O)(O)O)c3)CC2)c1 (stereo partly drawn) [Compound 4, (1-cyclopropyl-1-(3-(((trans)-4-(2-fluoro-5-methoxyphenyl)cyclohexyl)methoxy)phenyl)propan-2-yl)phosphonic acid] | > 1000 nM
COc1ccc(F)c([C@H]2CC[C@H](COc3cccc(C(CP(=O)(O)O)C4CC4)c3)CC2)c1 (stereo partly drawn) [Compound 2, (2-cyclopropyl-2-(3-(((trans)-4-(2-fluoro-5-methoxyphenyl)cyclohexyl)methoxy)phenyl)ethyl)phosphonic acid] | > 1000 nM
COc1ccc(F)c([C@H]2CC[C@H](COc3cc([C@@H](CP(C)(=O)O)C4CC4)ccn3)CC2)c1 [Compound 9, ((S)-2-cyclopropyl-2-(2-(((trans)-4-(2-fluoro-5-methoxyphenyl)cyclohexyl)methoxy)pyridin-4-yl)ethyl)(methyl)phosphinic acid] | ≤ 50 nM
COc1ccc(CCCC(C)(C)C)c(N2CCC(COc3cccc(CC(C)P(=O)(O)O)c3)CC2)c1 (stereo not drawn) [Compound 16, (1-(3-((1-(2-(4,4-dimethylpentyl)-5-methoxyphenyl)piperidin-4-yl)methoxy)phenyl)propan-2-yl)phosphonic acid] | > 1000 nM
COc1ccc(F)c([C@H]2CC[C@H](COc3cccc(C(CP(C)(=O)O)C4CC4)c3)CC2)c1 (single isomer, unassigned) [Compound 5, (2-cyclopropyl-2-(3-(((trans)-4-(2-fluoro-5-methoxyphenyl)cyclohexyl)methoxy)phenyl)ethyl)(methyl)phosphinic acid] | ≤ 50 nM
COc1ccc(F)c([C@H]2CC[C@H](COc3cccc(C(CP(C)(=O)O)C4CC4)c3)CC2)c1 (single isomer, unassigned) [Compound 6, (2-cyclopropyl-2-(3-(((trans)-4-(2-fluoro-5-methoxyphenyl)cyclohexyl)methoxy)phenyl)ethyl)(methyl)phosphinic acid] | 50 to 250 nM
COc1ccc(F)c([C@H]2CC[C@H](COc3cccc(C(CP(=O)(O)OC)C4CC4)c3)CC2)c1 (stereo partly drawn) [Compound 1, methyl hydrogen (2-cyclopropyl-2-(3-(((trans)-4-(2-fluoro-5-methoxyphenyl)cyclohexyl)methoxy)phenyl)ethyl)phosphonate] | 250 to 1000 nM
CC[C@H](Cc1cccc(OCC2CCN(c3cc(OC)ccc3CCCC(C)(C)C)CC2)c1)P(C)(=O)O [Compound 17, ((R)-1-(3-((1-(2-(4,4-dimethylpentyl)-5-methoxyphenyl)piperidin-4-yl)methoxy)phenyl)butan-2-yl)(methyl)phosphinic acid] | 250 to 1000 nM
COc1ccc(F)c([C@H]2CC[C@H](COc3cccc(C(CP(C)(=O)O)C4CC4)c3)CC2)c1 (single isomer, unassigned) [Compound 8, (2-cyclopropyl-2-(3-(((trans)-4-(2-fluoro-5-methoxyphenyl)cyclohexyl)methoxy)phenyl)ethyl)(methyl)phosphinic acid] | 50 to 250 nM
COc1ccc(CCCC(C)(C)C)c(N2CCC(COc3cccc([C@@H](C)CP(C)(=O)O)c3)CC2)c1 [Compound 14, ((R)-2-(3-((1-(2-(4,4-dimethylpentyl)-5-methoxyphenyl)piperidin-4-yl)methoxy)phenyl)propyl)(methyl)phosphinic acid] | 50 to 250 nM
COc1ccc(CCCC(C)(C)C)c(N2CCC(COc3cccc([C@H](C)CP(C)(=O)O)c3)CC2)c1 [Compound 15, ((S)-2-(3-((1-(2-(4,4-dimethylpentyl)-5-methoxyphenyl)piperidin-4-yl)methoxy)phenyl)propyl)(methyl)phosphinic acid] | ≤ 50 nM
COc1ccc(F)c([C@H]2CC[C@H](COc3cccc(C(CS(=O)(=O)O)C4CC4)c3)CC2)c1 (stereo partly drawn) [Compound 3, 2-cyclopropyl-2-(3-(((trans)-4-(2-fluoro-5-methoxyphenyl)cyclohexyl)methoxy)phenyl)ethanesulfonic acid] | > 1000 nM
COc1ccc(CCCC(C)(C)C)c(N2CCC(COc3cc([C@@H](CP(C)(=O)O)C4CC4)ccn3)CC2)c1 [Compound 11, ((S)-2-cyclopropyl-2-(2-((1-(2-(4,4-dimethylpentyl)-5-methoxyphenyl)piperidin-4-yl)methoxy)pyridin-4-yl)ethyl)(methyl)phosphinic acid] | ≤ 50 nM

system: not listed separately; experiment: In vivo plasma levels in mice; conditions: male C57BL/6J mice, 30 mg/kg oral gavage, 2 h post-dose; total exposure x free fraction from plasma protein binding
Method: Male C57BL/6J mice 10-12 weeks old were dosed with test article (30 mg/kg) or vehicle by oral gavage. Animals were euthanized with carbon dioxide at 2 h or 5 h post dose. Blood was collected for measurement of plasma concentrations of test article. Unbound exposure was calculated by multiplying the measured total exposure by the free fraction as assessed from plasma protein binding.
Plasma protein binding to isotonic phosphate buffer (PBS) containing 10% C57 BL/6 mouse plasma was determined using equilibrium dialysis of plasma spiked with test article (2 μM) against a dialysis buffer (100 mM sodium phosphate and 150 mM NaCl). At the end of the dialysis (4 hr), aliquots of the plasma and buffer were processed by protein precipitation for LC-MS/MS analysis to quantitate the test article.
Results for exemplary compounds (total exposure in plasma and unbound exposure in plasma; ratio of EC50 to unbound exposure in plasma) are shown in Table 2.

SMILES | Exposure (nM) (unbound), unbound exposure in plasma
COc1ccc(F)c([C@H]2CC[C@H](COc3cccc(C(CP(C)(=O)O)C4CC4)c3)CC2)c1 (single isomer, unassigned) [Compound 5, (2-cyclopropyl-2-(3-(((trans)-4-(2-fluoro-5-methoxyphenyl)cyclohexyl)methoxy)phenyl)ethyl)(methyl)phosphinic acid] | 2.5 nM

same assay, conditions: male C57BL/6J mice, 30 mg/kg oral gavage, 5 h post-dose; total exposure x free fraction from plasma protein binding

SMILES | Exposure (nM) (unbound), unbound exposure in plasma
COc1ccc(F)c([C@H]2CC[C@H](COc3cc([C@@H](CP(C)(=O)O)C4CC4)ccn3)CC2)c1 [Compound 9, ((S)-2-cyclopropyl-2-(2-(((trans)-4-(2-fluoro-5-methoxyphenyl)cyclohexyl)methoxy)pyridin-4-yl)ethyl)(methyl)phosphinic acid] | 2.3 nM

same assay, conditions: mouse, plasma; male C57BL/6J mice, 30 mg/kg oral gavage, 2 h post-dose; read-out: Exposure (nM), total exposure in plasma

SMILES | concentration at 2 h
COc1ccc(F)c([C@H]2CC[C@H](COc3cccc(C(CP(C)(=O)O)C4CC4)c3)CC2)c1 (single isomer, unassigned) [Compound 5, (2-cyclopropyl-2-(3-(((trans)-4-(2-fluoro-5-methoxyphenyl)cyclohexyl)methoxy)phenyl)ethyl)(methyl)phosphinic acid] | 8300 nM

same assay, conditions: mouse, plasma; male C57BL/6J mice, 30 mg/kg oral gavage, 5 h post-dose; read-out: Exposure (nM), total exposure in plasma

SMILES | concentration at 5 h
COc1ccc(F)c([C@H]2CC[C@H](COc3cc([C@@H](CP(C)(=O)O)C4CC4)ccn3)CC2)c1 [Compound 9, ((S)-2-cyclopropyl-2-(2-(((trans)-4-(2-fluoro-5-methoxyphenyl)cyclohexyl)methoxy)pyridin-4-yl)ethyl)(methyl)phosphinic acid] | 1160 nM
